Read-outs that look alike come from different tables or passages of the source.
How the values were obtained:
[1] = molecular target: T1, Taf3-PHD (residues 857–924) (Mus musculus, UniProt Q5HZG4); assay: NMR titration line shape analysis (TITAN), wild-type Taf3-PHD; format: binding
T1 construct: PHD finger of Taf3 (residues 857–924) in NMR buffer; GST (N, cleaved yes); made in house; host or cells: E. coli BL21(DE3), M9 minimal medium (13C/15N)
T1 sequence (Q5HZG4 857-924): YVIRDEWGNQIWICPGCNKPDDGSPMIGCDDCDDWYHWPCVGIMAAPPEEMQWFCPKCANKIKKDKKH
Description: The ^13C- and ^15N-labelled Taf3-PHD NMR samples were purified as described above, with minor differences. A single colony of freshly transformed BL21(DE3) E. coli was grown in a synthetic M9 minimal medium (6.0 g/l Na2HPO4·2H2O, 3.0 g/l KH2PO4, 0.5 g/l NaCl, 25 mg/l MgSO4, 290 μg/l CaCl2, 1 μg/l FeSO4·7H2O, 270 μg/l ZnCl2, and 5 mg/l thiamine) containing 2.0 g/l ^13C-glucose as the only carbon source and 0.5 g/l ^15NH4Cl as the sole nitrogen source. Protein expression, lysis, and loading to Glutathione Sepharose™ column were performed as described above. The GST-tag was removed through on-column thrombin digestion by loading excess thrombin (SERVA) in wash buffer followed by overnight digestion at 4°C. The cleaved PHD moiety with a […] N-terminal extension (Gly–Ser–His–Met–Ala–Met–Ala) remaining from the thrombin cleavage site was collected from the flow-through and further purified in a Mono Q™ 10/100 GL as before and subsequently loaded to a Superdex-75 HiLoad 16/600 gel filtration column in NMR buffer (20 mM KPi, pH 7.0, 150 mM KCl, 10 μM ZnCl2) (Supplementary Fig. S1).
All data were recorded at 298 K on a Bruker Avance III HD 900 MHz spectrometer equipped with a cryoprobe, unless noted otherwise. Sample for assignment verification contained 0.3 mM ^13C- and ^15N-labelled PHD finger of Taf3 (residues 857–924) in NMR buffer (20 mM KPi, pH 7.0, 150 mM KCl, 10 μM ZnCl2, 0.01% NaN3, 10% D2O) in a 5-mm NMR tube. Samples for peptide interaction studies contained 0.19 mM ^13C- and ^15N-labelled PHD in NMR buffer in 3-mm NMR tubes. Lyophilized peptides were dissolved in NMR buffer including 1 mM sodium 3-(trimethylsilyl)tetradeuteriopropanionate (TSP) into 20 mM stock solutions. Upon dilution to 1 mM, all peptide solutions were at pH 7.0 in NMR buffer. Peptide concentrations were determined by comparing the integral of the Thr methyl signal (from T3, T6, and T11, total nine protons) to that of TSP using a quantitative 1D experiment (recycle delay 60 s) recorded at a Bruker Avance III 600 MHz spectrometer. Saturated complexes with H3K4me1/H3K4me2/H3K4me3 peptides with and without H3Q5ser were made by adding peptide to a 0.7 mM final concentration (3.6 equiv.). […] Additional samples were prepared using 30%, 50%, 80%, and 160% equiv. of peptide. All spectra were recorded and processed using Bruker Topspin and analysed using NMR-FAM Sparky and Poky.
For the H3K4me2 complexes, the resonance of G879 was excluded due to overlap and that of K875 was included. Spectra were processed using NMRPipe using exponential line broadening of 10/15 Hz in the direct/indirect dimension of the free induction decay before Fourier transform. Data were fit against a 1:1 binding model that also optimizes the ligand concentration to compensate for concentration errors. Fitting assumed an HSQC experiment using 1.2 ms for the first zz-filter delays and an additional 0.6 ms evolution at the start and end of t1 that accommodated the echo/anti-echo gradient. The average koff value and standard error from a bootstrap analysis based on 100 replicas are reported. The 95% confidence limits were estimated using a grid search fixing koff allowing for an ∼3% increase in the final residuals as based on the F-statistic given the degrees of freedom. For each koff value, the KD for the H3K4me3 peptide was restrained to fall within 100 and 400 nM to enforce compatibility to previous reported affinity to avoid unrealistically high fitted KD values at higher koff values. Of note, the quality of the fit at the confidence limit edges is visibly worse than the best fit, particularly for the high koff side. For the H3K4me3Q5ser peptide, no restraint on KD was necessary. For the H3K4me2 peptides, the KD was restrained to 5 μM maximum. Without these upper bounds for KD, slightly wider confidence limits for koff are found.

TFIID = assay: Histone peptide pull-down qMS, HeLa nuclear extract; format: binding, HeLa cells; conditions: biotinylated H3 (1–13) peptides, overnight at 4°C, 300 mM NaCl, pH 7.9, qMS, FDR 0.1
Description: (§1) Nuclear extracts of HeLa cells were prepared using a modified version of the Dignam procedure. Cytosolic and nuclear separation was validated by immunoblot using the following antibodies: for TBP the 20C7 in house mouse monoclonal and for Tubulin the DM1A monoclonal from Calbiochem (CP06) (Supplementary Fig. S5A). Biotinylated H3 (1–13) peptides immobilized on Dynabeads™ M-280 Streptavidin (Invitrogen) were incubated on a rotating wheel with 1 mg of HeLa nuclear extract overnight at 4°C in binding buffer [20 mM HEPES–KOH, pH 7.9, 300 mM NaCl, 20% glycerol, 2 mM MgCl2, 0.2 mM ethylenediaminetetraacetic acid, 0.1% NP-40, 0.5 mM DTT, and 1× cOmplete™ Protease Inhibitor Cocktail (Roche)]. The beads were then washed two times with binding buffer containing 0.5% NP-40, two times with phosphate buffered saline (PBS) containing 0.5% NP-40, and two times with plain PBS. On-bead digestion of bound proteins was performed overnight at 22°C with 0.1 μg/ml of trypsin in elution buffer (100 mM Tris–HCl, pH 7.5, 2 M urea, 10 mM DTT). […] A third of the final elution was analysed as described in [44, 45] with minor changes. For nanoflow-HPLC–MS/MS samples were analysed on an Orbitrap Fusion Lumos mass spectrometer coupled to an Easy nano-LC 1200 HPLC (Thermo Fisher Scientific). […]

TAF3-PHD = conditions: read-out: expected dissociation constant (KD); cited from earlier work
Description: An important link between H3K4me3 and pol II is formed by the basal transcription factor TFIID [[32], [35–37]]. TFIID is able to engage with active promoters by DNA contacts as well as by two histone-binding domains: the double bromodomains of TAF1 engaging acylated histones and the TAF3-PHD finger binding H3K4me3 [[32], [35–37]]. […] Binding of ... || All data were recorded at 298 K on a Bruker Avance III HD 900 MHz spectrometer equipped with a cryoprobe, unless noted otherwise. Sample for assignment verification contained 0.3 mM ^13C- and ^15N-labelled PHD finger of Taf3 (residues 857–924) in NMR buffer (20 mM KPi, pH 7.0, 150 mM KCl, 10 μM ZnCl2, 0.01% NaN3, 10% D2O) in a 5-mm NMR tube. Samples for peptide interaction studies contained 0.19 mM ^13C- and ^15N-labelled PHD in NMR buffer in 3-mm NMR tubes. Lyophilized peptides were dissolved in NMR buffer including 1 mM sodium 3-(trimethylsilyl)tetradeuteriopropanionate (TSP) into 20 mM stoc ... || Overall, we propose that serotonin recognition is governed by edge–face CH–π interactions with either aromatic residues or prolines. Consistent with our proposal, CHD1 contains aromatic residues at positions Y295 and Y406, either of which could orient to engage with H3Q5ser explaining the preference of CHD1 for serotonin (Supplementary Fig. S15C). […]

[2] = molecular target: 13C- and 15N-labelled Taf3-PHD finger (residues 857-924), GST removed by thrombin (Mus musculus) (UniProt Q5HZG4); assay: NMR titration; 0.19 mM 13C,15N-labelled Taf3-PHD, peptide added (30% to 3.6 equiv.); 298 K; 20 mM KPi pH 7.0, 150 mM KCl, 10 μM ZnCl2; koff from TITAN line-shape fits (0%, 50%, 150% peptide), 1:1 model
[3] = molecular target: Taf3-PHD P881E–W894F used for NMR titrations (Mus musculus) (UniProt Q5HZG4); assay: as above
BPTF = assay: Histone peptide pull-down qMS, HeLa nuclear extract; format: binding, HeLa cells; conditions: biotinylated H3 (1–13) peptides, FDR 0.1
Description: as §1

[4] = molecular target: T2, Taf3-PHD (Mus musculus Taf3 residues 857-924), 13C- and 15N-labelled, GST removed (Mus musculus, UniProt Q5HZG4 857-924, 13C- and 15N-labelled); assay: solution NMR structure; 0.88 mM 13C,15N Taf3-PHD with 0.88 mM H3K4me3Q5ser peptide; 20 mM KPi pH 7.0, 4 mM KCl, 10 uM ZnCl2; NOESY at 293 K; NOE distance restraints imposed with HADDOCK on the structure PDB 2K17; conditions: both partners purified
T2 construct: Taf3 PHD finger, Mus musculus, residues 857-924; numbering of mouse Taf3 isoform 1, UniProt Q5HZG4; also called Taf3-PHD finger; PHD domain; source: E. coli BL21(DE3) in M9 minimal medium, purified (Glutathione Sepharose, on-column thrombin, Mono Q, Superdex-75); not shown: GST, N-terminal, cleaved
T2 sequence: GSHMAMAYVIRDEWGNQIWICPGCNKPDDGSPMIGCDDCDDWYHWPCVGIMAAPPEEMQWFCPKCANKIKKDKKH

C[C@H](N)C(=O)N[C@@H](CCCNC(=N)N)C(=O)N[C@H](C(=O)N[C@@H](CCCCN(C)C)C(=O)N[C@@H](CCC(=O)NCCc1c[nH]c2ccc(O)cc12)C(=O)N[C@H](C(=O)N[C@@H](C)C(=O)N[C@@H](CCCNC(=N)N)C(=O)N[C@@H](CCCCN)C(=O)N[C@@H](CO)C(=O)N[C@H](C(=O)NCC(N)=O)[C@@H](C)O)[C@@H](C)O)[C@@H](C)O [H3K4me2Q5ser]
koff ([1]; pH 7): 71 ± 2 s⁻¹
koff ([1]; pH 7, read-out: koff 95% confidence limits): 56 to 90 s⁻¹
TFIID preference for H3Q5ser peptides (TFIID): TFIID enrichment was most pronounced

C[C@H](N)C(=O)N[C@@H](CCCNC(=N)N)C(=O)N[C@H](C(=O)N[C@@H](CCCCN(C)C)C(=O)N[C@@H](CCC(N)=O)C(=O)N[C@H](C(=O)N[C@@H](C)C(=O)N[C@@H](CCCNC(=N)N)C(=O)N[C@@H](CCCCN)C(=O)N[C@@H](CO)C(=O)N[C@H](C(=O)NCC(N)=O)[C@@H](C)O)[C@@H](C)O)[C@@H](C)O [H3K4me2]
koff ([1]; NMR line shape fit (TITAN), 298 K, 20 mM KPi, pH 7.0, 150 mM KCl, 1:1 model, average ± standard error from bootstrap, 100 replicas, read-out: koff): 207 ± 10 s⁻¹
koff ([1]; NMR line shape fit (TITAN), 298 K, pH 7.0, grid search, read-out: koff 95% confidence limits): 160 to 250 s⁻¹
Kd (TAF3-PHD): 1700 nM

H3K4me2 histone H3 tail peptide (non-biotinylated)
koff [2]: 207 s⁻¹

H3K4me2Q5ser histone H3 tail peptide (non-biotinylated)
koff [2]: 71 s⁻¹

H3K4me3 histone H3 tail peptide (non-biotinylated)
koff [3]: 29.6 s⁻¹
koff [2]: 48.8 s⁻¹

H3K4me3Q5ser histone H3 tail peptide (non-biotinylated)
koff [3]: 24.2 s⁻¹
koff [2]: 16.8 s⁻¹

H-ARTK(Me)QTARKSTG-NH2 [H3K4me1, H3 tail peptide monomethylated at lysine 4]
Kd (TAF3-PHD): > 200000 nM

H-ARTKQ(ser)TARKSTG-NH2 [H3Q5ser, H3 tail peptide, K4 unmethylated, serotonylated glutamine 5]
BPTF preference for H3Q5ser peptides (BPTF): enhanced binding to H3Q5ser compared to the unmodified H3 peptide

B1: H3K4me3Q5ser peptide, non-biotinylated: H-ARTK(Me3)Q(ser)TARKSTG-NH2 (peptide)
peptide: H-ARTK(Me3)Q(serotonyl)TARKSTG-NH2
notes: histone H3 N-terminal tail, residues 1-12 of H3K4me3Q5ser; also called H3K4me3Q5ser ligand; H3 peptide; source: synthetic peptide
binding result [4]: binds

Source: PMC12238850, “Molecular determinants for recognition of serotonylated chromatin” (Nucleic Acids Research, 2025)
